Measurements: US20050119272A1, “Use of phosphodiesterase antagonists to treat insulin resistance” (DiaMedica Inc., priority 2002, published 2005)

Tests used:
[1] = tested on: cats; experiment: Development of insulin resistance in cats after intraportal muscarinic antagonists; assay type: in vivo, cat
From the text: To avoid the complexity of the reaction to hypoglycemia, the rapid insulin sensitivity test (RIST) was employed (Lautt et al., Can. J. Physiol. Pharmacol. 76:1080 (1998)) wherein a euglycemic clamp was used following the administration of insulin and the response was quantitated as the amount of glucose required to be infused over the test period in order to hold arterial blood glucose levels constant.

[2] = tested on: atropine-treated rats; experiment: Rapid insulin sensitivity test (RIST) in the atropine model of 75% HDIR in rats; assay type: in vivo, rat
Method: Male Sprague Dawley rats (250-300 g) were allowed free access to water and normal rodent food for 1 week prior to all studies. Rats were fasted for 8 hours overnight and fed for 2 hours before the start of study. Rats were anesthetized with pentobarbital-sodium (65 mg/ml, ip injection, 0.1 ml/100 g body weight). Animals were placed on a heated thermostatically controlled surgical table to maintain body temperature during surgery and the experimental procedure. An extra-corporeal arterial-venous shunt (the loop) was established between the right femoral artery and right femoral vein, according to a published, standard operating procedure developed in our laboratory (Xie et al., 1996). The loop allows for regular blood sampling of arterial blood throughout the experiment as well as infusion of intravenous drugs and monitoring of arterial blood pressure. […] A laparotomy was performed and an indwelling portal venous catheter was inserted using a portal vein puncture technique. The portal catheter was used to administer the phosphodiesterase inhibitor directly to the liver. […] At this point, blood samples (25 μl) were taken at regular intervals from the loop and analyzed for glucose concentration. […] Glucose levels were monitored every 2 minutes during and after the infusion of insulin. […]

Structure (SMILES): COc1ccccc1CNCCCCCCNCCCCCCCCNCCCCCCNCc1ccccc1OC [methoctramine]
- dose required to produce a full insulin resistance ([1]; administered into the portal vein): 10^−6 μmol/kg

Structure (SMILES): CN1CCN(CC(=O)N2c3ccccc3C(=O)Nc3cccnc32)CC1 [pirenzepine]
- dose achieving a similar degree of insulin resistance [1]: 10^−7 mmol/kg

Structure (SMILES): CCCOc1ccccc1-c1nc2nn[nH]c2c(=O)[nH]1 [zaprinast]
- RIST index ([2]; after zaprinast 0.1 mg/kg ipv, following atropine-induced 75% HDIR, n=8): 157.4 ± 6.1 mg/kg
- reversal of HDIR produced by atropine ([2]; zaprinast 0.1 mg/kg ipv, rats): able to reverse the HDIR produced by atropine
